From ChEMBL document CHEMBL5465560, “Selectivity Literature for EUbOPEN Chemogenomic Library” (2024)
One block for each compound: values may come before it.

How the values were obtained:
[1] = target: T1, MAP/microtubule affinity-regulating kinase 4 (Homo sapiens) (UniProt Q96L34); assay: Selectivity interaction (Kinase panel (Z-LYTE Assay)) EUB0001632a MARK4; conditions: at 10 µM
T1 sequence (whole entry): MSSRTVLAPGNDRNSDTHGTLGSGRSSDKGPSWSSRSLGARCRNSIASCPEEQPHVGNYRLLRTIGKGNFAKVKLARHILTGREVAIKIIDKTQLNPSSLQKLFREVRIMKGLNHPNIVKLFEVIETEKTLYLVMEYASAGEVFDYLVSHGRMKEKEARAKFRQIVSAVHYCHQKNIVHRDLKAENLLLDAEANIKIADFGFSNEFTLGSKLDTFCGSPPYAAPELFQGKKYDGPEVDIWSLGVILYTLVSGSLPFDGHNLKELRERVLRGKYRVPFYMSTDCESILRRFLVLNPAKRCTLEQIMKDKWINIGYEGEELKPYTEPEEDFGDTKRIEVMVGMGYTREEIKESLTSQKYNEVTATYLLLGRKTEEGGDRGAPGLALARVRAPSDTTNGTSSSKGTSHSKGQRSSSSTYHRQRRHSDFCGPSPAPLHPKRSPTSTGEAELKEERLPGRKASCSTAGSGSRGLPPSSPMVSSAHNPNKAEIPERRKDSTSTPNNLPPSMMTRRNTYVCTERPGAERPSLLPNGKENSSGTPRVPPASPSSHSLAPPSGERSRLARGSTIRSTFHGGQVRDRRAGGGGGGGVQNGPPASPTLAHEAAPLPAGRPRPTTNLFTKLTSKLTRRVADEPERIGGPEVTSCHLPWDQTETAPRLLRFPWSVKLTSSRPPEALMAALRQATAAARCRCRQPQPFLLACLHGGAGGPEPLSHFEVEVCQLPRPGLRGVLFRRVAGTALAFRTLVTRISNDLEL

[2] = target: Serine/threonine-protein kinase pim-2 (Homo sapiens, UniProt Q9P1W9); assay: Selectivity interaction (KinomeScan (DiscoverX)) EUB0000607a PIM2; conditions: at 10 µM
[3] = target: T2, Serine/threonine-protein kinase Nek1 (Homo sapiens) (UniProt Q96PY6); assay: Selectivity interaction (ProQinase) EUB0000171b NEK1
T2 sequence (whole entry): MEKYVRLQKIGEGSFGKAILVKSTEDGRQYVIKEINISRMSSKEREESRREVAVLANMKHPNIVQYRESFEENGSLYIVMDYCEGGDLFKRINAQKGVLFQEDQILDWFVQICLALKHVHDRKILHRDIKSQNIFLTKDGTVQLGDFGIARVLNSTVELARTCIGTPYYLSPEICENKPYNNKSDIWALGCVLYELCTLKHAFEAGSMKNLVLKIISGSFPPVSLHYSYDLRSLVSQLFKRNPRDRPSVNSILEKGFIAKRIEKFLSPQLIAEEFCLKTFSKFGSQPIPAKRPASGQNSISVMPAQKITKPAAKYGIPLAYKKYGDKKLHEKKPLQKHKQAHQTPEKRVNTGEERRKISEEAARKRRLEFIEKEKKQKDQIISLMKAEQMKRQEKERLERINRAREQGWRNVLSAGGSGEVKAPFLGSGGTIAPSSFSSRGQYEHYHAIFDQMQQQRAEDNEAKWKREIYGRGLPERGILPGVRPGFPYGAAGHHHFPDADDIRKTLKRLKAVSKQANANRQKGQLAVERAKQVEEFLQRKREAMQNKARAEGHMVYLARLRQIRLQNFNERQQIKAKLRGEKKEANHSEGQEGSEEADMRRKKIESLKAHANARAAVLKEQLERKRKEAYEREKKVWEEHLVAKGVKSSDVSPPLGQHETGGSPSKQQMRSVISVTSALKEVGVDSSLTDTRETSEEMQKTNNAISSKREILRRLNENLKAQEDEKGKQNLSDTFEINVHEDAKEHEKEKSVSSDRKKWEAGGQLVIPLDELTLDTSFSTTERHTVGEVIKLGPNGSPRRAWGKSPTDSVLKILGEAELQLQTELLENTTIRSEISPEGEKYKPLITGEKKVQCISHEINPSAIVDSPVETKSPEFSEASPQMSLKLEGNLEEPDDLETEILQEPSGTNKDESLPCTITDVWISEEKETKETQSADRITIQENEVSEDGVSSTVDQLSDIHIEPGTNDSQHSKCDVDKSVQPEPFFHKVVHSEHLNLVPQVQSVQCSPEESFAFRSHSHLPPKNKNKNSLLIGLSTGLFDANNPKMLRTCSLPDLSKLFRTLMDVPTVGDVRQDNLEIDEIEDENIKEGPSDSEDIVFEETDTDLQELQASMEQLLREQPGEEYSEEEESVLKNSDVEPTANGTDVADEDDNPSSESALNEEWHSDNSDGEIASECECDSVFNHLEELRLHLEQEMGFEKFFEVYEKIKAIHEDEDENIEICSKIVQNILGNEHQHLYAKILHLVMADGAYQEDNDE

[4] = target: Tyrosine-protein kinase Fer (Homo sapiens) (UniProt P16591); assay: Selectivity interaction (ProQinase) EUB0000171b FER
[5] = target: T3, TGF-beta receptor type-1 (Homo sapiens) (UniProt P36897); assay: Selectivity interaction (KinomeScan (DiscoverX)) EUB0000229b TGFBR1; conditions: at 10 µM
T3 sequence (whole entry): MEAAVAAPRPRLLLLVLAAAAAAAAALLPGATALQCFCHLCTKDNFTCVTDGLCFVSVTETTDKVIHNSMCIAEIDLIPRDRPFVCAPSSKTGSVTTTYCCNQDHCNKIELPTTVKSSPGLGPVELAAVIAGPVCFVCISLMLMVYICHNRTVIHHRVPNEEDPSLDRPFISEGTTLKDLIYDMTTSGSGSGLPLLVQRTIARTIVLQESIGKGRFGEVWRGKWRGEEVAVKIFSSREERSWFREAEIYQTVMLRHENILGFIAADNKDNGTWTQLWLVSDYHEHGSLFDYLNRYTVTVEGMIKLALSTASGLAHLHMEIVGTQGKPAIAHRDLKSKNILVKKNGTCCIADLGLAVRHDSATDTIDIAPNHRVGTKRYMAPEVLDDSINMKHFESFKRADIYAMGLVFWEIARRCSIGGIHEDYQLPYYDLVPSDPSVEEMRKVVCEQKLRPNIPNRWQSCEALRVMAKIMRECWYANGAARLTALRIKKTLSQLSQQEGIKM

Sequence of Tyrosine-protein kinase Fer (Homo sapiens) (P16591 whole entry, looked up): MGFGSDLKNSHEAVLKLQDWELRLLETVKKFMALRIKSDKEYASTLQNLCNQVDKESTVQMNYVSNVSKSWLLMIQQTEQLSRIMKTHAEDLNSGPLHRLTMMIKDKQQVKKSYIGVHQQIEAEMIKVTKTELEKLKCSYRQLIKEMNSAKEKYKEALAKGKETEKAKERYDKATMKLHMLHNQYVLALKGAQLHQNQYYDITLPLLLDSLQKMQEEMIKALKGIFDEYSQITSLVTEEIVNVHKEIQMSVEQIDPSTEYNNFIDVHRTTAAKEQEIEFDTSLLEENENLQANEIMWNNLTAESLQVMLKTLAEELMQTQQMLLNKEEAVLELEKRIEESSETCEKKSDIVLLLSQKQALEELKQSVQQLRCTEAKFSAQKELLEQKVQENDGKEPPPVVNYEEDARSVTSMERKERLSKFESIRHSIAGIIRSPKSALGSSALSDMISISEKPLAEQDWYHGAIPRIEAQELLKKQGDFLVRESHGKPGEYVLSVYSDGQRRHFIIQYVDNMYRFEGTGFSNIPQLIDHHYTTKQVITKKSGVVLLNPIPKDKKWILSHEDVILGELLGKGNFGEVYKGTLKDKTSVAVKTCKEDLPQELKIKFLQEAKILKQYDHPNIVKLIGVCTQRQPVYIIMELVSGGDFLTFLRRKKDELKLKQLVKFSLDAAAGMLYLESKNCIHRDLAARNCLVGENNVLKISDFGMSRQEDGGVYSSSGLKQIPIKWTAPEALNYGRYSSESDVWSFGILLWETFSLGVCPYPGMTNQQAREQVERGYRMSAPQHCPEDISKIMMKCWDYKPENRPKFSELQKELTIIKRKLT
Sequence of Serine/threonine-protein kinase pim-2 (Q9P1W9 whole entry, looked up): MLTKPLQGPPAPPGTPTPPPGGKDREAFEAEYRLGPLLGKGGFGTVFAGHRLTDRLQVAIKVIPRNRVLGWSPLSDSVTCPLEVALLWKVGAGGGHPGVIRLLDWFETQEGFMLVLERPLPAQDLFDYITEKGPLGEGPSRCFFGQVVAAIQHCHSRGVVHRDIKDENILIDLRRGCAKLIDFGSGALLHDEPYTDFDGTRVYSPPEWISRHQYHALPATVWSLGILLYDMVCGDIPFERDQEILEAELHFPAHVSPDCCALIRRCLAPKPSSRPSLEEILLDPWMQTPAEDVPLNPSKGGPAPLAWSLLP

% of control [1]: 18.7%
Compound: Cn1cc(-n2cnc3c(NCc4nc5cc(Cl)c(Cl)cc5[nH]4)nc(N4CCOCC4)nc32)cn1

Compound: CNC(=O)Nc1ccc(-c2nc(N3CC4CCC(C3)O4)c3cnn(C4CCC5(CC4)OCCO5)c3n2)cc1
% of control [2]: 74%

% of control ([3]; at 1 µM): 80%
% of control ([3]; at 5 µM): 64%
% of control ([4]; at 1 µM): 104%
% of control ([4]; at 5 µM): 93%
Compound: C=CC(=O)Nc1cccc(C(=O)Nc2ccc(Nc3cc(-c4[nH]c(SC)nc4C)ccn3)cc2)c1

Compound: COc1cc(N(C)c2ccnc3ccc(C(F)(F)F)cc23)cc(OC)c1OC
% binding [5]: 89%
